Data: the NIST ThermoML archive (doi:10.1016/j.jct.2015.09.003)
Numbers after ± are expanded uncertainties.

How the values were obtained:
[1] = Molar enthalpy of transition or fusion; details: Crystal; DSC
[2] = Crystal; DTA

Row | Molar enthalpy of transition or fusion [1] | Normal melting temperature [2] | Compound
1 | 6.69 ± 0.151 kcal/mol | 202.2 ± 0.6 °C | CC(C)(C)C1=CC=C(C(C)(C)C)C(=O)C1=O [3,6-di-tert-butyl-o-benzoquinone]
2 | 6.26 ± 0.141 kcal/mol | 115.4 ± 0.6 °C | CC(C)(C)C1=CC(=O)C(=O)C(C(C)(C)C)=C1 [3,5-di-tert-butyl-o-benzoquinone]
